Assay results taken from article PMC9646673, “A Novel, Orally Bioavailable, Small-Molecule Inhibitor of PCSK9 With Significant Cholesterol-Lowering Properties In Vivo” (Journal of Lipid Research, 2022).

Tests used:
[1] = system: hepatic LDLR protein; experiment: Second efficacy study: hepatic LDLR protein (Western blotting); format: in vivo, mouse; settings: day 35; NYX-PCSK9i 50 mg/kg BID PO, atorvastatin […]
[2] = system: APOE∗3-Leiden.CETP mice; experiment: Second efficacy study: body weight, food intake, plasma ALT and AST; format: in vivo, mouse; parameters: Body weight (mean ± SD) / Food intake (mean ± SD): unit not given here; settings: NYX-PCSK9i 50 mg/kg BID PO, atorvastatin […]
Text: Animal experiments were approved by the governmental central committee on animal experiments (AVD5010020172064) and TNO’s animal welfare body (TNO-471 and TNO-482). Female APOE∗3-Leiden.CETP transgenic mice (11–16 weeks of age) were bred at the animal facility of TNO-InnoSer (Leiden, The Netherlands). Female animals were used in this study as they are more responsive to dietary cholesterol and fat than males and therefore typically develop atherosclerosis more rapidly than male APOE∗3-Leiden and APOE∗3-Leiden.CETP mice on cholesterol-containing diets ([33], [34]). Although measurements of atherosclerosis were not included as part of the present study, females were used with the prospect in mind that atherosclerosis studies will follow. The mice were housed under standard conditions that included 12 h light-dark cycles and access to a WTD and sterilized tap water ad libitum. Body weight, food intake, and clinical signs of behavior were monitored throughout the studies. […] Time t = 0 (weeks) was designated as the time at which mice were matched into groups after the 3-week run-in period in each efficacy study.
In both studies, blood samples were collected at weekly intervals via tail vein sampling after fasting the mice for 4 h. Blood samples were centrifugated (4500 g at 4°C), and the plasma was collected for the following analyses. Total plasma cholesterol levels were determined using a Cholesterol CHOD-PAP kit according to the manufacturer’s instructions. Plasma HDL-C levels were determined by first precipitating apoB-containing lipids using PEG 6000/glycine and then utilizing the Cholesterol CHOD-PAP kit ([35]). Non-HDL-C levels were determined by subtracting HDL-C levels from total cholesterol levels ([32]). Group-pooled lipoprotein profiles were determined by FPLC analysis using an AKTApurifier 10 FPLC system (GE Healthcare, Chicago, IL). Plasma PCSK9 levels were determined using a Mouse PCSK9 Quantikine ELISA kit as per the manufacturer’s protocol. ALT and AST levels of group-pooled samples were measured using the Roche Reflotron Plus System (Mannheim, Germany).

[3] = system: APOE∗3-Leiden.CETP mice; settings: cited from earlier work

| Compound | increase in hepatic LDLR protein expression [1] | Body weight (mean ± SD) ([2]; day 0 (baseline)) | Food intake (mean ± SD) ([2]; day 0 (baseline)) | Food intake (mean ± SD) ([2]; day 7) | Food intake (mean ± SD) ([2]; day 14) | Food intake (mean ± SD) ([2]; day 21) | Body weight (mean ± SD) ([2]; day 28) | Food intake (mean ± SD) ([2]; day 28) | Food intake (mean ± SD) ([2]; day 35) | hepatic cholesteryl ester content, fecal bile acid content and fecal neutral sterol levels [3] |
| --- | --- | --- | --- | --- | --- | --- | --- | --- | --- | --- |
| CC(C)c1c(C(=O)Nc2ccccc2)c(-c2ccccc2)c(-c2ccc(F)cc2)n1CC[C@@H](O)C[C@@H](O)CC(=O)O [atorvastatin, reference compound] | no significant effect | 21.7 ± 0.8 | 3.4 ± 0.3 | 2.5 ± 0.1 | 2.5 ± 0.2 | 2.3 ± 0.0 | 21.8 ± 1.2 | 2.3 ± 0.1 | 2.5 ± 0.1 |  |
| alirocumab: a monoclonal antibody against PCSK9 |  |  |  |  |  |  |  |  |  | affected none of these parameters |
